The viability is a read-out of living cells in per cent, often relative to untreated cells.

The values below come from paper PMC12040169 (PLOS Biology, 2025).

The data set can be described thus: in vitro. The following applies: human, hela cells, % viability.
In the case of `COc1ncc(-c2cncc(Nc3cccc(C#N)c3)n2)c(OC)n1` [CBK066022], the viability at 28.5 h, 10 µM turned out to be 89.7%. As to `N#Cc1cccc(Nc2cncc(-c3cccs3)n2)c1` [CBK066030], the viability at 28.5 h, 10 µM came to 95.4%. For the compound `CCOc1cccc(-c2cncc(NCc3cccs3)n2)c1` [CBK066034], the viability at 28.5 h, 10 µM worked out at 104%. Next, `CC(C)[C@@H](CO)Nc1cncc(-c2ccc(O)cc2)n1` [CBK066038]: 97.8%; `c1ccc2oc(-c3cncc(NCCCN4CCOCC4)n3)cc2c1` [CBK066045]: 92.9%; `CC(=O)Nc1ccc(-c2cncc(N3CCN(C(=O)c4ccco4)CC3)n2)cc1` [CBK066065]: 99.3%. Turning to `COc1ccc(N2CCN(c3cncc(-c4cccnc4)n3)CC2)cc1OC` [CBK066086], the viability at 28.5 h, 10 µM is 90.5%.

As for `COc1ccc(-c2cncc(N3CCN(c4cccc5[nH]ccc45)CC3)n2)cc1` [CBK066087], the viability at 28.5 h, 10 µM was 97.2%.

For `CCCC/C=C/c1cncc(N2CCN(Cc3ccccn3)CC2)n1` [CBK066096], the viability at 28.5 h, 10 µM is 93.4%.

On to `CCN(CC)CCN1CCN(c2cncc(-c3cccc(/C=C/C(=O)O)c3)n2)CC1` [CBK066097], for which the viability at 28.5 h, 10 µM was 96.6%. Next, `Clc1cccc(-c2cncc(N3CCN(c4ccncc4)CC3)n2)c1` [CBK066099]: 95.4%; `c1ccc(N2CCN(c3cncc(-c4ccc5ccccc5c4)n3)CC2)nc1` [CBK066104]: 100%. In the case of `COc1ccc(N2CCN(c3cncc(-c4cccc(N)c4)n3)CC2)cc1OC` [CBK066126], the viability at 28.5 h, 10 µM amounted to 94.3%. Next, `COCCNc1nc(-c2ccc3ccccc3c2)cn2ccnc12` [CBK066138]: 103%. To `FC(F)(F)c1cc(-c2cn3ccnc3c(NCCc3cccnc3)n2)cc(C(F)(F)F)c1` [CBK066146] belongs 98.1%; to `CC(C)[C@H](CO)Nc1nc(-c2ccc(N3CCOCC3)cc2)cn2ccnc12` [CBK066151], 108%; to `COc1cccc(OC)c1-c1cn2ccnc2c(NCCc2ccccn2)n1` [CBK066173], 109%. To `COc1cc(-c2cn3ccnc3c(NC3CC3)n2)cc(OC)c1OC` [CBK066184] belongs 90%; to `CCCC/C=C/c1cn2ccnc2c(Nc2cccc(OCC(=O)N(C)C)c2)n1` [CBK066185], 108%; to `COc1cc(-c2cn3ccnc3c(N(C)CCN(C)C)n2)cc(OC)c1OC` [CBK066196], 100%. In the case of `CCCC/C=C/c1cn2ccnc2c(N2CCN(c3ccccn3)CC2)n1` [CBK066224], the viability at 28.5 h, 10 µM turned out to be 94%. To `COc1ccc(-c2cn3ccnc3c(N3CCCCC3CO)n2)cc1OC` (stereo not drawn) [CBK066230] belongs 107%; to `CCCC/C=C/c1cn2ccnc2c(NCCc2cccnc2)n1` [CBK066235], 105%; to `CCN(CCO)c1ccc(Nc2nc(-c3cccc4ccccc34)cn3ccnc23)cc1` [CBK066243], 87.9%. To `Clc1cccc(Nc2nc(Br)cn3ccnc23)c1` [CBK066260] belongs 80.6%; to `COc1ccc(-c2cn3ccnc3c(Nc3ccc(N4CCOCC4)cc3)n2)cc1` [CBK066265], 98.5%; to `O=C(O)/C=C/c1cccc(-c2cn3ccnc3c(NCc3cccnc3)n2)c1` [CBK066283], 98.8%.

For the compound `Brc1cccc(-c2cn3ccnc3c(NC3CCOCC3)n2)c1` [CBK066291], the viability at 28.5 h, 10 µM was found to be 101%. Next, `O=C(O)/C=C/c1cccc(-c2cn3ccnc3c(N3CCN(c4ccncc4)CC3)n2)c1` [CBK066326]: 94.8%. Next, `CCCC/C=C/c1cn2ccnc2c(NCc2cc(OC)c(OC)c(OC)c2)n1` [CBK066331]: 93.1%; `CN1CCN(c2nc(-c3ccccc3CO)cn3ccnc23)CC1` [CBK066347]: 87.1%.

Turning to `COc1ccc(Nc2nc(-c3cc(C(C)C)ccc3OC)cn3ccnc23)cn1` [CBK066354], the viability at 28.5 h, 10 µM was 84.3%.

Turning to `FC(F)(F)c1cc(-c2cn3ccnc3c(Nc3ccc4[nH]ccc4c3)n2)cc(C(F)(F)F)c1` [CBK066356], the viability at 28.5 h, 10 µM amounted to 91.7%.

In the case of `CN(C)CCNC(=O)c1cccc(-c2cn3ccnc3c(NCc3ccccc3)n2)c1` [CBK066365], the viability at 28.5 h, 10 µM turned out to be 102%.

Turning to `COc1ccc(C(C)C)cc1-c1cn2ccnc2c(N(C)CCN(C)C)n1` [CBK066368], the viability at 28.5 h, 10 µM was 94.8%. Next, `OCCNc1nc(-c2ccccc2)cn2ccnc12` [CBK066379]: 97.6%; `CN(C)CCN(C)c1nc(-c2ccc3c(c2)OCO3)cn2ccnc12` [CBK066381]: 110%.

`CN1CCN(c2nc(-c3cc4ccccc4s3)cn3ccnc23)CC1` [CBK066388]: the viability at 28.5 h, 10 µM worked out at 106%. Next, `FC(F)(F)c1cc(-c2cn3ccnc3c(N3CCOCC3)n2)cc(C(F)(F)F)c1` [CBK066396]: 93.4%.

Take `COc1cccc(OC)c1-c1cn2ccnc2c(N(C)CCN(C)C)n1` [CBK066398]: the viability at 28.5 h, 10 µM is 97.3%. Next, `COCCNc1nc(-c2cccs2)cn2ccnc12` [CBK066408]: 99.3%. For the compound `COCCNc1nc(-c2cccc(F)c2)cn2ccnc12` [CBK066465], the viability at 28.5 h, 10 µM worked out at 98.4%. Take `CCNc1nc(-c2ccc(Oc3ccccc3)cc2)cn2ccnc12` [CBK066467]: the viability at 28.5 h, 10 µM came out at 94.6%. For `CN(C)CCN(C)c1nc(-c2ccc(Oc3ccccc3)cc2)cn2ccnc12` [CBK066469], the viability at 28.5 h, 10 µM came to 99.8%. To `FC(F)(F)c1cccc(-c2cn3ccnc3c(NCCc3ccccn3)n2)c1` [CBK066491] belongs 95.4%; to `CCOc1cccc(-c2cn3ccnc3c(Nc3ccc(Cl)cc3)n2)c1` [CBK066505], 92.1%; to `c1ccc(Nc2nc(-c3cccs3)cn3ccnc23)cc1` [CBK066513], 83.7%.

As to `CN1CCCN(c2nc(-c3cccc(C(F)(F)F)c3)cn3ccnc23)CC1` [CBK066519], the viability at 28.5 h, 10 µM stood at 92%. Next, `c1ccc(N2CCN(c3nc(-c4ccoc4)cn4ccnc34)CC2)nc1` [CBK066522]: 99.7%. As to `Cc1csc(-c2cn3ccnc3c(N3CCN(c4ccccn4)CC3)n2)c1` [CBK066530], the viability at 28.5 h, 10 µM was found to be 95.6%. In the case of `CSc1ccc(-c2cn3ccnc3c(Nc3ccccc3)n2)cc1` [CBK066537], the viability at 28.5 h, 10 µM was 91.3%.

Regarding `OCCN1CCN(c2nc(-c3cc(Cl)cc(Cl)c3)cn3ccnc23)CC1` [CBK066558], the viability at 28.5 h, 10 µM worked out at 94.1%. Next, `Nc1ccc(-c2cn3ccnc3c(NCc3cccs3)n2)cc1` [CBK066564]: 95.5%; `CCOc1cccc(-c2cn3ccnc3c(N(C)CCN(C)C)n2)c1` [CBK066569]: 89.7%.

With `CN1CCCN(c2nc(-c3cccs3)cn3ccnc23)CC1` [CBK066652], the viability at 28.5 h, 10 µM amounted to 89.5%. Next, `CCSc1ccc(-c2cn3ccnc3c(N3CCN(CCN(C)C)CC3)n2)cc1` [CBK066662]: 92.8%; `Nc1ccc(-c2cn3ccnc3c(NCC3CC3)n2)cc1` [CBK066677]: 101%; `c1cncc(CNc2nc(-c3cccs3)cn3ccnc23)c1` [CBK066687]: 104%. Regarding `Fc1ccc(-c2cn3ccnc3c(NC3CC3)n2)cc1F` [CBK066692], the viability at 28.5 h, 10 µM was 101%. Next, `Cn1ccc2cc(-c3cn4ccnc4c(N4CCOCC4)n3)ccc21` [CBK066696]: 89.1%. Next, `c1csc(-c2cn3ccnc3c(NC3CC3)n2)c1` [CBK066712]: 108%; `CCOc1cccc(-c2cn3ccnc3c(NC3CC3)n2)c1` [CBK066736]: 91.6%; `Cc1cc(-c2cn3ccnc3c(NC3CC3)n2)cc(C)c1O` [CBK066747]: 86.5%. To `c1csc(-c2cn3ccnc3c(NCC3CC3)n2)c1` [CBK066754] belongs 93.7%; to `O=C(NCCCNc1ccc([N+](=O)[O-])cc1)c1cccs1` [CBK066825], 94.1%; to `COC(=O)c1sccc1NC(=O)COc1ccc([N+](=O)[O-])cc1Cl` [CBK066828], 109%. In the case of `CCOC(=O)c1c(N)sc(C(=O)Nc2cccc([N+](=O)[O-])c2)c1C` [CBK066829], the viability at 28.5 h, 10 µM amounted to 91.2%. Turning to `O=C(Nc1cc(Cl)cc(Cl)c1)c1ccc([N+](=O)[O-])s1` [CBK066840], the viability at 28.5 h, 10 µM was found to be 95.2%. To `COC(=O)c1cc(Br)c(NC(=O)c2cccs2)cc1OC` [CBK066842] belongs 86.6%. On to `O=C(O)c1sccc1Oc1ccc(F)cc1[N+](=O)[O-]` [CBK066847], for which the viability at 28.5 h, 10 µM worked out at 112%. To `O=C(Nc1cccc(F)c1C(=O)Nc1ccc(F)cc1F)c1cccs1` [CBK066849] belongs 87.3%; to `N#Cc1ccc(SCCOC(=O)c2cccs2)c([N+](=O)[O-])c1` [CBK066853], 99%; to `N#Cc1cccc(NC(=O)c2cccs2)c1` [CBK066855], 96.2%. For the compound `Cc1cc(N2CCOCC2)c2c(N)c(Br)cc(C)c2n1` [CBK066880], the viability at 28.5 h, 10 µM was found to be 73%. Next, `O=C(c1c(-c2ccccc2)nnc2ccccc12)N1CCN(CCO)CC1` [CBK066882]: 87.3%; `CC(C)CN(CC(N)=O)CC(=O)NC1(c2ccccc2)CCC1` [CBK066883T]: 88.9%. On to `CC(=O)N1CCN(c2c(-c3ccccc3)nnc3ccccc23)CC1` [CBK066889], for which the viability at 28.5 h, 10 µM was 91.2%. With `Cc1cc(N2CCNCC2)c2ccccc2n1` [CBK066895], the viability at 28.5 h, 10 µM amounted to 86.1%.

Consider `c1ccc2c(N3CCCCC3)cnnc2c1` [CBK066897], for which the viability at 28.5 h, 10 µM is 99.2%. As to `CN(C)CCNc1cc(-c2ccncc2)nc2ccccc12` [CBK066898B], the viability at 28.5 h, 10 µM turned out to be 90.4%. To `CC1CCN(c2nc(-c3ccccc3O)nc3ccccc23)CC1` [CBK066899] belongs 109%.
